pIC50: −log10 of the molar value. Where a name gives a salt, the structure may show the parent alone.
Tests used:
[1] = molecular target: GABAA receptor complex (benzodiazepine modulatory unit); assay: In vitro inhibition of 3H-flunitrazepam (3H-FNM) binding; parameters: species or system rat; conditions: inhibition of specific binding of 3H-FNM (1 nM), cerebral cortex membranes from male Wistar rats, 40 min at 2° C.
Method: In vitro Inhibition of ^3H-flunitrazepam (^3H-FNM) Binding
The GABA recognition site and the benzodiazepine modulatory unit can selectively be labelled with ^3H-flunitrazepam.
Preparations are performed at 0-4° C. unless otherwise indicated. Cerebral cortex from male Wistar rats (150-200 g) is homogenised for 5-10 sec in 20 ml Tris-HCl (30 mM, pH 7.4) using an Ultra-Turrax homogeniser. The suspension is centrifuged at 27,000×g for 15 min and the pellet is washed three times with buffer (centrifuged at 27,000×g for 10 min). The washed pellet is homogenized in 20 ml of buffer and incubated on a water bath (37° C.) for 30 min to remove endogenous GABA and then centrifuged for 10 min at 27,000×g. The pellet is then homogenized in buffer and centrifuged for 10 min at 27,000×g. The final pellet is resuspended in 30 ml buffer and the preparation is frozen and stored at −20° C.
The membrane preparation is thawed and centrifuged at 2° C. for 10 min at 27,000×g. The pellet is washed twice with 20 ml 50 mM Tris-citrate, pH 7.1 using an Ultra-Turrax homogeniser and centrifuged for 10 min at 27,000×g. The final pellet is resuspended in 50 mM Tris-citrate, pH 7.1 (500 ml buffer per g of original tissue), and then used for binding assays. Aliquots of 0.5 ml tissue are added to 25 μl of test solution and 25 μl of ^3H-FNM (1 nM, final concentration), mixed and incubated for 40 min at 2° C. Non-specific binding is determined using Clonazepam (1 μM, final concentration). After incubation the samples are added 5 ml of ice-cold buffer and poured directly onto Whatman GF/C glass fibre filters under suction and immediately washed with 5 ml ice-cold buffer. The amount of radioactivity on the filters is determined by conventional liquid scintillation counting. Specific binding is total binding minus non-specific binding.
25-75% inhibition of specific binding must be obtained, before calculation of an IC50.
The test value will be given as IC50 (the concentration (μM) of the test substance which inhibits the specific binding of ^3H-FNM by 50%). […]

Compound	melting point	pIC50 [1]
c1ccc(COCc2cccc(-n3cnc4cc(CN5CCCC5)ccc43)c2)nc1	192 to 194 °C	
ON=Cc1ccc2c(c1)ncn2-c1cccc(COCc2ccccn2)c1	154 to 154.8 °C	
ON=Cc1ccc2c(c1)ncn2-c1cccc(CNCc2ccc(F)c(F)c2)c1	165 to 167 °C	
CCOC(=O)c1ccc2c(c1)ncn2-c1cccc(COCc2ccccn2)c1	99.8 to 101.2 °C	
CC(=NO)c1ccc2c(c1)ncn2-c1cccc(COCc2ncnn2C)c1 (as salt: chloride) [Compound 22a, 1-{1-[3-(2-Methyl-2H-[1,2,4]triazol-3-ylmethoxymethyl)-phenyl]-1H-benzoimidazol-5-yl}-ethanone oxime]	178.8 to 180.4 °C	
CC(=NO)c1ccc2c(c1)ncn2-c1cccc(COCc2ncnn2C)c1 [Compound 22a, 1-{1-[3-(2-Methyl-2H-[1,2,4]triazol-3-ylmethoxymethyl)-phenyl]-1H-benzoimidazol-5-yl}-ethanone oxime]		8.68
CC(O)c1ccc2c(c1)ncn2-c1cccc(COCc2ncnn2C)c1 (centres unmarked) [Compound 23, 1{-1-[3-(2-Methyl-2H-[1,2,4]triazol-3-ylmethoxymethyl)-phenyl]-1H-benzoimidazol-5-yl}-ethanol]		7.66
CCOC(C)c1ccc2c(c1)ncn2-c1cccc(COCc2ncnn2C)c1 (centres unmarked) [Compound 24b, 5-(1-Ethoxy-ethyl)-1-[3-(2-methyl-2H-[1,2,4]triazol-3-ylmethoxymethyl)-phenyl]-1H-benzoimidazole]		8.04
